Results on three molecules are retold here after ChEMBL document CHEMBL5241136, “Design, synthesis and evaluation of heterocyclic 2-phenylacetate derivatives as water-soluble rapid recovery hypnotics” (Bioorg Med Chem Lett, 2023).

Data set [1] is described as follows: n-Octanol/water partition coefficient, logP of the compound. The class given is physicochemical. Conditions: n-octanol/water; read-out: logP.
Data set [2] relates to Mus musculus. The data set can be described thus: Anesthetic activity in mouse assessed as concentration required to induce hypnotic effect. Type of data set: functional.
Data set [3] in a line: Toxicity in mouse assessed as lethal dose. The note with it: in vivo.
A short description of data set [4]: Therapeutic index, ratio of LD50 for toxicity in mouse to HD50 for anesthetic activity in mouse assessed as concentration required to induce hypnotic effect. Conditions: read-out: TI.
Data set [5] relates to Mus musculus. The data set is described as follows: Anesthetic activity in mouse assessed as onset time. The class given is functional.
The test system of data set [6] is Mus musculus. The data set is described as follows: Anesthetic activity in mouse assessed as time duration of loss of righting reflex. Type of data set: functional.
Data set [7] has as its system Mus musculus. The data set can be described thus: Anesthetic activity in mouse assessed as time to walk. Type of data set: functional.
Data set [8] concerns Mus musculus. The data set is described as follows: Anesthetic activity in mouse assessed as time to behavioral recovery. The class given is functional.
Data set [9] concerns Rattus norvegicus. The data set is described as follows: Anesthetic activity in rat assessed as concentration required to induce hypnotic effect. The class given is functional.
The nature of data set [10]: Toxicity in rat assessed as lethal dose. The note with it: in vivo.
A short description of data set [11]: Therapeutic index, ratio of LD50 for toxicity in rat to HD50 for anesthetic activity in rat assessed as concentration required to induce hypnotic effect. The note with it: read-out: TI.
The test system of data set [12] is Oryctolagus cuniculus. The data set can be described thus: Anesthetic activity in rabbit assessed as concentration required to induce hypnotic effect. The class given is functional.
Data set [13] in a line: Toxicity in rabbit assessed as lethal dose. On the set-up: species or system Oryctolagus cuniculus. Conditions: in vivo.
Data set [14] in a line: Therapeutic index, ratio of LD50 for toxicity in rabbit to HD50 for anesthetic activity in rabbit assessed as concentration required to induce hypnotic effect. Conditions: read-out: TI.
Data set [15] relates to Rattus norvegicus. The data set can be described thus: Anesthetic activity in rat assessed as onset time. The class given is functional.
Data set [16] relates to Rattus norvegicus. The data set is described as follows: Anesthetic activity in rat assessed as time duration of loss of righting reflex. Type of data set: functional.
In data set [17] the test system is Rattus norvegicus. The data set is described as follows: Anesthetic activity in rat assessed as time to walk. The class given is functional.
Data set [18] concerns Rattus norvegicus. The data set can be described thus: Anesthetic activity in rat assessed as time to behavioral recovery. The class given is functional.
Data set [19] deals with Oryctolagus cuniculus. The data set is described as follows: Anesthetic activity in rabbit assessed as onset time. Type of data set: functional.
Data set [20] deals with Oryctolagus cuniculus. The data set is described as follows: Anesthetic activity in rabbit assessed as time duration of loss of righting reflex. Type of data set: functional.
The subject of data set [21] is Oryctolagus cuniculus. The data set is described as follows: Anesthetic activity in rabbit assessed as time to walk. Type of data set: functional.
In data set [22] the target is GABA-A receptor; anion channel (Homo sapiens) (UniProt P14867+P47870+P18507+P28472+P48169+Q99928+Q9UN88+P34903+O00591+O14764+Q8N1C3+P18505+P78334+P47869+P31644+Q16445). The data set can be described thus: Inhibition of GABAA receptor (unknown origin) at 50 uM by radioligand receptor binding assay relative to control. The class given is protein-complex assay.

Structures are written as SMILES.

Regarding `CCOc1cc(CC(=O)OC(C)C)ccc1OCC(=O)N1CCOCC1`, the logP (in general, the decadic logarithm of the partition coefficient of the neutral form, usually between octanol and water) in data set [1] worked out at 1.2. Moreover, the ED50 (usually the midpoint of the dose-response relation) was found to be 30.8 mg/kg in the data set with Mus musculus [2], 11.4 mg/kg in the data set on Rattus norvegicus [9] and 7.4 mg/kg in the data set with Oryctolagus cuniculus [12]. Moreover, the figures for the LD50 in data set [3], in [10] and in data set [13] were 200 mg/kg, 128 mg/kg and 112 mg/kg, respectively. For the same molecule, the selectivity ratio in data set [4] was 6.5; in data set [11] it was 11.2; in data set [14] it was 15.2. Further, the Time with Mus musculus [5] is 7.5 s; with Mus musculus [6] it was 116.8 s; in the data set on Mus musculus [7] it was 54.9 s; in the data set with Mus musculus [8], 96.8 s; with Rattus norvegicus [15] it was 11.1 s; in the data set on Rattus norvegicus [16] it was 84.6 s. Further, the Time is 32.6 s with Rattus norvegicus [17]; 61.7 s with Rattus norvegicus [18]; 19.9 s in the data set on Oryctolagus cuniculus [19]; 188.6 s in the data set on Oryctolagus cuniculus [20]; 81.4 s with Oryctolagus cuniculus [21]. In addition, the inhibition – broadly, how much of the control response was suppressed – in [22] was 76.8%.
`CCOC(=O)Cc1ccc(OCC(=O)N2CCOCC2)c(OCC)c1`: the lipophilicity (logP) in data set [1] is 1.1. In addition, the ED50 in the data set on Mus musculus [2] amounted to 35.5 mg/kg; with Rattus norvegicus [9], 10.5 mg/kg; with Oryctolagus cuniculus [12] it was 7.6 mg/kg. Further, the LD50 (as a rule, the dose at which mortality reaches 50%) in data set [3] turned out to be 227 mg/kg; in data set [10], 89.3 mg/kg; in data set [13], 131 mg/kg. Moreover, the selectivity ratio in data set [4] came to 6.4; in data set [11] it was 8.5; in [14], 17.3. Further, the Time with Mus musculus [5] came to 7.6 s; in the data set with Mus musculus [6], 112.9 s; in the data set on Mus musculus [7], 39.8 s; with Mus musculus [8], 69.3 s; in the data set with Rattus norvegicus [15], 8.7 s; in the data set with Rattus norvegicus [16], 78.9 s. In addition, the Time with Rattus norvegicus [17] was found to be 25.8 s; with Rattus norvegicus [18], 65.8 s; with Oryctolagus cuniculus [19] it was 24.6 s; in the data set with Oryctolagus cuniculus [20], 197.2 s; in the data set with Oryctolagus cuniculus [21], 96.6 s. The molecule also returned an inhibition in data set [22] of 62.8%.
In the case of `CCCOC(=O)Cc1ccc(OCC(=O)N2CCOCC2)c(OCC)c1`, the logP in [1] was 1.4. The ED50 in the data set on Mus musculus [2] came to 32.2 mg/kg; in the data set on Rattus norvegicus [9], 12.2 mg/kg; in the data set with Oryctolagus cuniculus [12], 6.5 mg/kg. For the same molecule, the LD50 in data set [3] came out at 200 mg/kg; in [10], 123 mg/kg; in data set [13], 108 mg/kg. In addition, the selectivity ratio worked out at 6.2 in data set [4], 10.1 in data set [11] and 16.6 in data set [14]. The Time is listed as 6.7 s in the data set with Mus musculus [5]; 104.8 s in the data set with Mus musculus [6]; 46.8 s in the data set with Mus musculus [7]; 89.6 s with Mus musculus [8]; 9.2 s in the data set on Rattus norvegicus [15]; 81.2 s in the data set on Rattus norvegicus [16]. Also, the Time worked out at 37.9 s in the data set on Rattus norvegicus [17]; 69.6 s in the data set on Rattus norvegicus [18]; 21.3 s with Oryctolagus cuniculus [19]; 211.4 s in the data set with Oryctolagus cuniculus [20]; 79.6 s with Oryctolagus cuniculus [21]. Also, the inhibition in data set [22] was found to be 64.3%.
